# Test results as given in patent US12685761B2, “VIP and VIP agonists, nanoparticles, and uses in inflammatory T-cell mediated disease” (Emory University, priority 2018, dated 2026).
# Tested on: VIP-KO B6 recipients
# Assay: Short-term VIP administration in allo-BMT GvHD lethality model (FIG. 4)
# Format: in vivo, mice
# Settings: VIP 10 μgram/day vs PBS from day 0 to day 10; lethally irradiated VIP-KO B6 recipients infused with 5M TCD BM plus 3×10^6 B10.BR T cells
# From the text: Lethally irradiated WT and VIP-KO B6 recipients were infused with 5M TCD BM plus 3×10^6 B10.BR T cells.
substance,measurement,value
vasoactive intestinal peptide [VIP],acute GvHD mortality after allo-BMT,rescued VIP-KO recipients from acute GvHD mortality
